From patent publication EP4786486A1, “PEPTIDES FOR TREATING CARDIAC DISEASES” (Universidad Complutense De Madrid, priority 2023, dated 2025)
Read-outs that look alike come from different tables or passages of the source. Where no end group is shown, it is not given here.

How the values were obtained:
[1] = tested on: human iPSC-derived cardiomyocytes; details: hiPSC-CM; sustained current sensitive to TTX (10 µM), as percentage of the current peak; 500 ms pulses from -120 to -45 mV
[2] = tested on: dissociated cardiomyocytes from Sham and TAC mice; experiment: INa density in dissociated cardiomyocytes, murine TAC model of HFrEF; format: in vivo; details: pre-treatment with DECA-11 (AAV9)
Description: (§1) A murine model of CI with reduced ejection fraction (HFrEF) was used to analyse the effect of SEQ ID NO: 3 on the decrease in INa and IK1 caused by electrical remodelling associated with Cl. The mice are subjected to transverse aortic constriction (TAC) with ligation, and pressure overload leads to the occurrence of cardiac hypertrophy and Cl. The mice were produced at the Medical Research Centre of the University of Navarra (CIMA), under the direction of Dr Aránzazu González Miqueo.
(§2) Eight-week-old mice were administered 3.5×10^10 particles of adeno-associated virus type 9 that encoded either the fluorescent reporter td-Tomato (Aav-dt-T) alone, or the reporter and the peptide DECA-11. At 12 weeks of age, an echocardiographic check-up (baseline) was performed and at week 13 they underwent surgery in which the aorta was ligated (TAC animals) or not (Sham animals).
(§3) That same week they were sent to the UCM animal facility. Next, the mice were heparinised and anaesthetised and then sacrificed by cervical dislocation, at a rate of one per day, and a thoracotomy was performed to remove the heart which was mounted through the aorta into a cannula connected to a Langendorff apparatus for enzymatic dissociation of the cardiac myocytes. […]

[3] = tested on: dissociated cardiomyocytes from Sham and TAC mice; experiment: Capacitance (cell size) of dissociated cardiomyocytes, murine TAC model of HFrEF; format: in vivo; details: TAC animals treated with DECA-11 (AAV9) vs. untreated TAC animals
Description: as §1, §2, §3

human Kir2.1 channels = experiment: IKir2.1 density, whole-cell patch-clamp in CHO cells co-transfected with Kir2.1 and the cDNA encoding the peptide; format: cell-based; details: CHO cells co-transfected with cDNA SEQ ID NO: 5; vs. cells transfected only with Kir2.1 channels; P<0.05
Description: To do this, CHO cells were transfected with the cDNA that encodes the human cardiac channels (Kir2.1) that generate IK1 (Origene, USA) (SEQ ID NO: 22), co-transfecting cells, or not, with the cDNA described in SEQ ID NO: 5. […] The sampling frequency was 4 kHz and the data, filtered at a frequency of 2 kHz, were stored on hard disks for further analysis using the CLAMPFIT application of the pCLAMP software. The current (IKir2.1) was recorded by applying 250 ms pulses from -120 to +20 mV from a holding potential of -60 mV. The density of the same was obtained by normalising the amplitude of IKir2.1 at the end of the pulse by the capacitance of each cell (pA/pF). […] Like in example 2.1, each point represents the mean±SEM of "n" experiments obtained from at least 3 different CHO cell plates. One-way ANOVA followed by the Tukey test. * P<0.05 vs. cells transfected only with Kir2.1 channels.

[4] = tested on: human iPSC-derived cardiomyocytes; experiment: INa, IK1 and INaL by patch-clamp in cardiomyocytes infected with adeno-associated virus encoding the peptide; format: cell-based; details: hiPSC-CM
Description: One-way ANOVA followed by the Tukey test.

[5] = tested on: human minimal promoter of the SCN5A gene; experiment: Luciferase assay in hEK-293 cells, minimal promoter of SCN5A; format: cell-based; details: hEK-293, co-transfected with cDNA SEQ ID NO: 5, 48 hours
Description: 48 hours after transfection, luciferase assays were performed using the LightSwitch Luciferase Assay reagent, also from Active Motif, and a Berthold luminometer. All assays were performed in triplicate and each point represents the mean of each technical triplicate.

[6] = infection 48 hours before recording, vs Ad-td-Tomato

| Sequence | INaL [1] | density of INa ([2]; TAC cardiomyocytes) | density of INa ([2]; cardiomyocytes from Sham animals) | capacitance of myocytes [3] | density of IKir2.1 (human Kir2.1 channels) | INaL ([4]; TTX (10 µM) sensitive sustained current as percentage of the current peak) | density of IK1 [4, 6] | density of INa [4, 6] | effect on the minimal promoter of the human SCN5A gene [5] |
| --- | --- | --- | --- | --- | --- | --- | --- | --- | --- |
| RFTRESLAAIE (listed as Homo sapiens) [SEQ ID NO: 3, 11-amino acid peptide, amino acids 15-25 of human Nav1.5] | does not increase | significantly and markedly increased | increased | significantly lower | significantly increase | – | – | – | – |
| RFTRESLAAIE [DECA-11, RFTRESLAAIE] | – | – | – | – | – | does not increase INaL | significantly increase the density of INa and IK1 | significantly increase the density of INa and IK1 | no significant effect |
